Measured values reported in patent US20050239754A1 (priority 2003, published 2005).

Assay: Pseudo-titration in water with IRA-400(OH) anion exchange resin, samples assayed by HPLC
Format: physicochemical
Experimental: 60 g of Amberlite IRA400 (OH) resin was prewashed with 4.7 percent (by weight) ammonium hydroxide (50 ml of 28 percent ammonium hydroxide, 250 ml deionized water), followed by extensive washing with deionized water. The final conductivity was 6.1 μS.
Samples containing about 0.9 g of S-[2-[(1-Iminoethyl)amino]ethyl]-2-methyl-L-cysteine di-hydrochloride in 142 ml HCl/water solution, were concentrated on a rotary evaporator at 60° C. to an oil. To the oil, diluted to 60 ml with deionized water, was added aliquots of 0.5 g of washed anion exchange resin while stirring. At five minutes after each aliquot of resin was added, the solution pH was measured and a sample removed through a syringe filter. A total of 9 g of anion exchange resin was added. The final pH was 10.8. The resin was removed by filtration and the filtrate was concentrated to an oil by rotary evaporation at 60° C.; no solids formed. The starting material, final filtrate and all intermediate samples were assayed by HPLC and ion chromatography for chloride.
The diamond (solid line) is pH and square (dashed line) is S-[2-[(1-Iminoethyl)amino]ethyl]-2-methyl-L-cysteine (percent initial, by ion chromatography). […] The diamond (solid line) is pH and triangle (broken line) is chloride (by ion chromatography).
These curves are not true titration curves since samples were withdrawn during the progress of the reaction, and since true equilibrium was not attained before the increments of resin were added. Nevertheless, the graphs of FIG. 2 and FIG. 3 illustrate the expected trends. As resin is added to the S-[2-[(1-Iminoethyl)amino]ethyl]-2-methyl-L-cysteine solution the pH rises with change in slope around pH's of 2, 9 and 11. The pH's of slower rise are representative of the pK's of the carboxylic acid, amine and amidine functional groups, respectively. Above a pH of 10, the S-[2-[(1-Iminoethyl)amino]ethyl]-2-methyl-L-cysteine concentration in solution decreases. At this point, the S-[2-[(1-Iminoethyl)amino]ethyl]-2 methyl-L-cysteine is gaining a net negative charge and is binding to the resin. […] The final chloride content is approximately 0.04 mol equivalents.

[1] = pseudo-titration with anion exchange resin in water, not true titration curves

CC(=N)NCCSC[C@](C)(N)C(=O)O [S-[2-[(1-Iminoethyl)amino]ethyl]-2-methyl-L-cysteine]
pH of slower rise representative of the pK of the amidine [1]: ~11
pH of slower rise representative of the pK of the amine [1]: ~9
pH of slower rise representative of the pK of the carboxylic acid [1]: ~2
Degradation by HPLC assay of the titration samples (samples up to final pH 10.8): no degradation
